Results: ChEMBL document CHEMBL4725292 (J Med Chem, 2020)
The source made the active and inactive calls. The rule behind the calls is not given here.

Columns and labels:
[1] = Lipophilicity, logD of the compound at pH 7.4 by chromatographic method; type: physicochemical; conditions: buffer
[2] = target: T1, Bromodomain-containing protein 3 (Homo sapiens, UniProt Q15059); assay: Binding affinity to human partial length BRD3 bromodomain 2 (G306 to P416 residues) expressed in bacterial expression system by BROMOscan assay
[3] = target: T1, Bromodomain-containing protein 3; assay: Binding affinity to full length BRD3 BD1 in human HuT78 cell lysates incubated for 45 mins by liquid chromatography-mass spectrometry based chemoproteomic binding assay; type: subcellular
[4] = target: Bromodomain testis-specific protein (Homo sapiens, UniProt Q58F21); assay: Binding affinity to full length BRDT BD1 in human HuT78 cell lysates incubated for 45 mins by liquid chromatography-mass spectrometry based chemoproteomic binding assay; type: subcellular
[5] = target: T2, Bromodomain-containing protein 2 (Homo sapiens, UniProt P25440); assay: Binding affinity to full length BRD2 BD1 in human HuT78 cell lysates incubated for 45 mins by liquid chromatography-mass spectrometry based chemoproteomic binding assay; type: subcellular
[6] = target: T2, Bromodomain-containing protein 2; assay: Binding affinity to full length BRD2 BD2 in human HuT78 cell lysates incubated for 45 mins by liquid chromatography-mass spectrometry based chemoproteomic binding assay; type: subcellular
[7] = target: T3, ATPase family AAA domain-containing protein 2B (Homo sapiens, UniProt Q9ULI0); assay: Binding affinity to human partial length ATAD2B (Q955 to R1082 residues) expressed in bacterial expression system by BROMOscan assay
T3 sequence (Q9ULI0 whole entry): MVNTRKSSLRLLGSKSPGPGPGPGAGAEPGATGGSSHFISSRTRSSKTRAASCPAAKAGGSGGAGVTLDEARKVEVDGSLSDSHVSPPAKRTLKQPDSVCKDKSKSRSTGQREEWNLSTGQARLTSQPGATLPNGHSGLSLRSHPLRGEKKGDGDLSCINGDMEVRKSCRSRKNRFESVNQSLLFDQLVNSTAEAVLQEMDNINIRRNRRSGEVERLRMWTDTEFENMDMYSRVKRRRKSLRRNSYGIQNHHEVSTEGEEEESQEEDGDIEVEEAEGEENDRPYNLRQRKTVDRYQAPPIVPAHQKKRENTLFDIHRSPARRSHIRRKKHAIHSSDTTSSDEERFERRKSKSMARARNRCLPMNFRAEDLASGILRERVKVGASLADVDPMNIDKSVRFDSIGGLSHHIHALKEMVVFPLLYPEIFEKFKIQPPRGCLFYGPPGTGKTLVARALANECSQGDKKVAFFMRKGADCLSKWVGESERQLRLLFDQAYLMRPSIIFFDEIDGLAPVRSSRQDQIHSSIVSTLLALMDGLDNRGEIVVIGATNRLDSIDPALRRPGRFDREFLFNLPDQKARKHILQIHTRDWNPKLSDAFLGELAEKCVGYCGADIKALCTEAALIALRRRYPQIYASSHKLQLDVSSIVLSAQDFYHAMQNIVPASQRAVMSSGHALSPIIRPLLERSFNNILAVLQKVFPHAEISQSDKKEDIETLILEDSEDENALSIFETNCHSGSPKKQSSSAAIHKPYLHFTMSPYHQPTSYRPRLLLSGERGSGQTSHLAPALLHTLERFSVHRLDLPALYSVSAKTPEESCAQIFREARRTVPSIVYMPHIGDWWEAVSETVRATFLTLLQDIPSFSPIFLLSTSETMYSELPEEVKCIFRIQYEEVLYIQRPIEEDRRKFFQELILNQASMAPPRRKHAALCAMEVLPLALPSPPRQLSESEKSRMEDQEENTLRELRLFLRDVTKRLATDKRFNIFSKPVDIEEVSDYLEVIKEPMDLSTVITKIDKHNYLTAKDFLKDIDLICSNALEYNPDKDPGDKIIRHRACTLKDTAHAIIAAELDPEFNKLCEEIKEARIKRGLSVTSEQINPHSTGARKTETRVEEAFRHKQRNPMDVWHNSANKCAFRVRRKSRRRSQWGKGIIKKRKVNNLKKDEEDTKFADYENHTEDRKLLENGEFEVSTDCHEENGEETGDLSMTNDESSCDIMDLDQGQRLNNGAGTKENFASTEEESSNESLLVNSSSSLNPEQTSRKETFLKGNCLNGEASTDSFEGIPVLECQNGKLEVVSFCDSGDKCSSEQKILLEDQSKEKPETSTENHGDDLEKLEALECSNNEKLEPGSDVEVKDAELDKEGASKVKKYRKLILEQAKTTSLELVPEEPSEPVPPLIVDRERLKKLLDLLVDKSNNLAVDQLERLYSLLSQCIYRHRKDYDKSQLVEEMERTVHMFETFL

Blood = assay: Inhibition of LPS-induced TNFalpha production in human whole blood preincubated for 30 mins followed by LPS addition and measured after overnight incubation by mesoscale assay; type: functional, tissue-based
B cell = assay: Downregulation of IL-6 secretion in human B cells cocultured with human PBMC at 0.37 to 10 uM preincubated for 1 hr followed by anti-IgM and TCR stimulation and measured after 84 hrs by ELISA; type: functional, cell-based; conditions: dose microM 0.37-10, time 1.0 hrs
[8] = target: Transcription initiation factor TFIID subunit 1 (Homo sapiens, UniProt P21675); assay: Binding affinity to human partial length TAF1 bromodomain 2 (D1521 to D1656 residues) expressed in bacterial expression system by BROMOscan assay
Sequence of Transcription initiation factor TFIID subunit 1 (P21675 whole entry, the tested form may be a part): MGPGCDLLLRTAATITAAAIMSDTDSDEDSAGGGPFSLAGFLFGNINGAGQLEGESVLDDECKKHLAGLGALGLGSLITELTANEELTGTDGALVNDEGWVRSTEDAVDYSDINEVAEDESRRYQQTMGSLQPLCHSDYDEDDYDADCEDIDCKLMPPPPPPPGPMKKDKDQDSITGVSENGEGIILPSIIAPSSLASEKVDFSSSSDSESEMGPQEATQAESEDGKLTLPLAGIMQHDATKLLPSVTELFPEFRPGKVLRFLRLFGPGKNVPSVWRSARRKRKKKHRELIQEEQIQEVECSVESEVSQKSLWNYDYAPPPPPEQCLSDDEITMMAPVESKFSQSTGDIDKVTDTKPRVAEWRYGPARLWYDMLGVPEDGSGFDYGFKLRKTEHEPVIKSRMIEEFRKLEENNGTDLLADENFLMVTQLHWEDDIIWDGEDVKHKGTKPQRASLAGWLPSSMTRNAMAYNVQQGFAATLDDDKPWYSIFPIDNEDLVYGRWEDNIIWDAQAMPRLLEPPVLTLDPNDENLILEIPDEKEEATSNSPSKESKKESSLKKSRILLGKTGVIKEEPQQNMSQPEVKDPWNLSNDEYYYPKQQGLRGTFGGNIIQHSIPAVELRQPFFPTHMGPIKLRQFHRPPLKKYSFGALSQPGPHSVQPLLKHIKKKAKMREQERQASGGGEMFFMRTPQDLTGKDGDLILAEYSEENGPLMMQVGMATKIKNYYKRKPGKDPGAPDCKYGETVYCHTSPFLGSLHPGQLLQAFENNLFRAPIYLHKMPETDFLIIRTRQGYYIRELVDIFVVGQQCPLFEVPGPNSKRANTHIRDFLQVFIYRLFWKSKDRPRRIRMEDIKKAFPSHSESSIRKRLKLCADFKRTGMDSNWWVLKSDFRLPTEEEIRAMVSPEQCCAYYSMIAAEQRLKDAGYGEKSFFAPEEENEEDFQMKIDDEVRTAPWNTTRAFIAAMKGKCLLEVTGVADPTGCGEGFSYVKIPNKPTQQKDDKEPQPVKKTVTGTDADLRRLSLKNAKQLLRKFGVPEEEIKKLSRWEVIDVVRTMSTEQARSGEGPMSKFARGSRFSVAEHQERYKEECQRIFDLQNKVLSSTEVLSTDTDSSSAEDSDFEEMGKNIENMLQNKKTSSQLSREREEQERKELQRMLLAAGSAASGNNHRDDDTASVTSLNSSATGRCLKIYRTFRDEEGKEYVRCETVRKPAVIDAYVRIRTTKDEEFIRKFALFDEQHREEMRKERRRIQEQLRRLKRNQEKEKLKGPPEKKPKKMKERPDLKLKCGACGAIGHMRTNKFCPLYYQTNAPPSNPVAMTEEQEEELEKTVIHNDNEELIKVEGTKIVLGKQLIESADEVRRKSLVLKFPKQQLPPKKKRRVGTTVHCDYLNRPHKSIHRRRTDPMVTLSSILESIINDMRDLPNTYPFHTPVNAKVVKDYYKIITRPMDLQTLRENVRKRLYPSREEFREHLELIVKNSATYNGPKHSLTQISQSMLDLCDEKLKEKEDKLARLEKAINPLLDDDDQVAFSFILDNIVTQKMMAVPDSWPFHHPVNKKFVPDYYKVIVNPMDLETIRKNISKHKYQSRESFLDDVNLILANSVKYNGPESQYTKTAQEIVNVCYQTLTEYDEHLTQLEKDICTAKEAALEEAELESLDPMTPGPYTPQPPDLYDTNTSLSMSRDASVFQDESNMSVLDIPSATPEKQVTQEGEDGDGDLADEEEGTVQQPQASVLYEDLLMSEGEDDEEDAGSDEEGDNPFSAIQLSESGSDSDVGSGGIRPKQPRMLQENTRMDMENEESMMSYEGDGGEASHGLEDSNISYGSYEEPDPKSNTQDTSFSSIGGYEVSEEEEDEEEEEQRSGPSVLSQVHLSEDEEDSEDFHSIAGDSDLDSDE

T2 sequence (P25440 whole entry): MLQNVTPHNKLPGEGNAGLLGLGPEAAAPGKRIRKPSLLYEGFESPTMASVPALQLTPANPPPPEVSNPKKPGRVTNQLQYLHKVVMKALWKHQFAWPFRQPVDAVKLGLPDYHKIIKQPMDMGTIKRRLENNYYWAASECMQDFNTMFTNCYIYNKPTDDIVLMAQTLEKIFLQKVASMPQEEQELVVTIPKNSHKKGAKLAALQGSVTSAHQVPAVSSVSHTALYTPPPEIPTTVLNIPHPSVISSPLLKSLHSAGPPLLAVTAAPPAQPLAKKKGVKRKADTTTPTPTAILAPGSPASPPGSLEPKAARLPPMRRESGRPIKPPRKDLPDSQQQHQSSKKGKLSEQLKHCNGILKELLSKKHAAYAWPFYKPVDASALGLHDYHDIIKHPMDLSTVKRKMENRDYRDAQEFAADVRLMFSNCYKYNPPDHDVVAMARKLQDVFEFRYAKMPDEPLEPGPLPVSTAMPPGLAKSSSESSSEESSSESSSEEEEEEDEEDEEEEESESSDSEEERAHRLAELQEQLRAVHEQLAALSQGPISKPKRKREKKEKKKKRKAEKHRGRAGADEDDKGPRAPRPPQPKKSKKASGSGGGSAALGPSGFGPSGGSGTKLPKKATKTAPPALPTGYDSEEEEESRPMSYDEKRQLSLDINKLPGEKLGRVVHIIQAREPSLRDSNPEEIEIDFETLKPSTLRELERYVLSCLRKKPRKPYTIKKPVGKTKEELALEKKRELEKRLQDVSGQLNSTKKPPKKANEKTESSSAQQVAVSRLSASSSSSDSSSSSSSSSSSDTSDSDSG
T1 sequence (Q15059 whole entry, the tested form may be a part): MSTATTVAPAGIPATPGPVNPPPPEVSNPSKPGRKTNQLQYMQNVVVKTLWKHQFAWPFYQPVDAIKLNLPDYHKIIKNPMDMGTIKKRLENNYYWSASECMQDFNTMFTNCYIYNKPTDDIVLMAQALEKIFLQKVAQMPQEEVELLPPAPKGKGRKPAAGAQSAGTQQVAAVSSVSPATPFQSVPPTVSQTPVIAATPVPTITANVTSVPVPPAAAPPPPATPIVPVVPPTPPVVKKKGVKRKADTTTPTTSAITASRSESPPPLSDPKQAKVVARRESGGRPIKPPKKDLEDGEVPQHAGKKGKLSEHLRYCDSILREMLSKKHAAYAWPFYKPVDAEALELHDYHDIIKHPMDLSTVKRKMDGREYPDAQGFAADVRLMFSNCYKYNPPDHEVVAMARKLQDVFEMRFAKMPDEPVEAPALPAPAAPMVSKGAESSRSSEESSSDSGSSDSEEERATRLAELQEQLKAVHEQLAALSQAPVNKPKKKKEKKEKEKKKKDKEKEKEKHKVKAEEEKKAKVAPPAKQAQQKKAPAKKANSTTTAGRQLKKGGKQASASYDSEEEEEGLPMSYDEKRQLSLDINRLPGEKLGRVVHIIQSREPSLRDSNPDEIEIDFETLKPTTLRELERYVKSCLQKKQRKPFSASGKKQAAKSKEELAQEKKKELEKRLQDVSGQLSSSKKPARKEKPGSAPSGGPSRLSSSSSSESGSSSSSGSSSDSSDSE

chromatographic logD [1]: 3.99
Kd [2]: 20000 nM
Kd [3]: 3.98 nM
Kd [4]: 10 nM
Kd [5]: 3.98 nM
Kd [6]: > 25100 nM
Kd [7]: 15800 nM
IC50 (Blood): 870 nM
Kd [8]: 50.1 nM
Structure (SMILES): Cc1cc2c(-c3ccco3)cnc(N[C@@H]3CCN(C)C[C@H]3C(=O)NC3CCCCC3)c2[nH]c1=O [GSK789]
Activity (B cell): Active
